Tested on: Adjuvant induced rheumatoid arthritis in rats
Assay: In vivo anti-arthritic activity: Freund's complete adjuvant induced arthritis in rats
Design: species or system Male Wistar rats
Settings: reference group, dose not given
Method: Male Wistar rats weighing […] were orally dosed with 100, 200 and 400 mg/kg of spent turmeric polysaccharide from day 1-day 28. The animals were given intra-dermal injection of Freund's complete adjuvant in the paw at a dosage level of 0.1 ml on days 7, 15, 21 and 28 of the study to induce arthritis. Oedema induced by the adjuvant was measured as increase in paw volumes on days 7, 15, 21 and 28. At the end of the study, animals were sacrificed and blood and tissue collected for analyzing the inflammatory parameters. The inflammatory parameters studied included, • a. Inflammation in the paws • b. Blood Biochemistry • c. Lipid Per oxidation • d. Reduced Glutathione in serum • e. Superoxide dismutase activity in serum • f. Levels of Acid and Alkaline phosphatase • g. TNF-α levels • h. IL6 levels

Question: How did the “ACP (acid phosphatase)” value turn out when CC(=O)Oc1ccccc1C(=O)O [ASA, Acetyl salicylic acid] was run?
Answer: The value was 6.71 ± 0.06 IU/ml.

Question: And the “ALP (alkaline phosphatase)” value?
Answer: Its value is 104.18 ± 0.94 IU/ml.

Question: What about the “LIPID PEROXIDATION malondialdehyde formed” value of the same compound?
Answer: The value was 18.19 ± 0.10 nm/g tissue.

Question: What about the Platelets of the same compound?
Answer: The Platelets was 232 ± 2.65 10^9/L.

Question: And the “Red blood corpuscles-RBCs” value?
Answer: Its value is 4.70 ± 0.04 10^6 Cells /μl.

Question: What about the “Reduced Glutathione” value of the same compound?
Answer: The value was 595.69 ± 0.64 μg/g tissue.

Question: What about the “SUPEROXIDE DISMUTASE” value of the same compound?
Answer: The value was 16.39 ± 0.01 g activity in tissue/min.

Question: And the “White blood corpuscles-WBCs” value?
Answer: The value was 7800.0 ± 85.63 Cells/μl.

From patent publication US11298395B2, “Isolates from spent turmeric for the management of rheumatoid arthritis” (SAMI LABS LIMITED, priority 2017, dated 2022)
